Holding throughout (test): DTP human tumour cell line panel, 48 h
For assay [1], the system named is A549 NSCLC.
Assay [2] deals with HS 578T breast.
The subject of assay [3] is HT29 colon.
Assay [4] relates to SF-268 CNS.
For assay [5], the system named is SK-OV-3 ovarian.
The test system of assay [6] is SN12C renal.
For assay [7], the system named is TK-10 renal.
The test system of assay [8] is UACC-257 melanoma.
In assay [9] the test system is UACC-62 melanoma.
Assay [10] has as its system OVCAR-4 ovarian.

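Compound exposure: 48 hours, 5 concentrations, 96-well plates. GI50 = concentration required for 50% inhibition of growth. At the TGI there is no net growth.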

The text below walks through data of PubChem BioAssay (NCI).

Regarding `CC1=NC(=Cc2ccc([N+](=O)[O-])cc2)C(=O)N1n1c(-c2ccccc2)nc2ccccc2c1=O`, the TGI in assay [1], in assay [2], in assay [3], in assay [4], in assay [5] and in [6] was above 100 µM throughout. The TGI in [7], in [8] and in assay [9] was above 100 µM in each case.

Regarding `CC(=O)[CH-]C(=O)c1ccccc1.CC(=O)[CH-]C(=O)c1ccccc1.C[C@]12CCC(=O)C=C1CC[C@@H]1C2CC[C@@]2(C)C1CC[C@]2(C)[O-].C[C@]12CCC(=O)C=C1CC[C@@H]1C2CC[C@@]2(C)C1CC[C@]2(C)[O-].Cl.[Ti+4]` (some centres not stated), the GI50 (in general, the concentration giving 50% growth inhibition) was 16.1 µM in assay [1]; 16.3 µM in assay [3]; 42.7 µM in [10]; 20.7 µM in [4]; 23.4 µM in [5]; 18.7 µM in assay [6]. The values for the GI50 in assay [7], in assay [8] and in assay [9] were 34.2 µM, 18 µM and 12.8 µM, respectively. Besides, the TGI (in general, the concentration giving total growth inhibition) in [1] was 40.3 µM; in [3], 76 µM; in assay [10], above 100 µM; in assay [4], 75.2 µM; in [5] it was 53.1 µM; in assay [6], 49.5 µM. The total growth inhibition concentration (TGI) is above 100 µM in [7], 51.7 µM in assay [8] and 42.9 µM in assay [9].

With `CN(C)c1cc[n+](-c2nc(/N=C(\[O-])C(F)(F)F)nc3c2ncn3C2CC(O)C(CO)O2)cc1` (configuration not stated), the TGI in assay [1], in assay [2], in assay [3], in [10], in assay [4] and in assay [5] was above 100 µM in each case. In addition, the TGI in assay [6], in assay [7] and in assay [9] was above 100 µM throughout.

As to `CC(=O)N(O)c1ccc(-c2nc3ccccc3s2)cc1`, the TGI in [1], in assay [2], in [3], in [10], in [4] and in assay [6] was above 100 µM in each case. For the same compound, the TGI in [7], in assay [8] and in [9] was above 100 µM in each case.

For the compound `CCc1ccccc1NNc1cc(=O)[nH]c(=O)[nH]1`, the TGI in [1] turned out to be 57.3 µM; in assay [2], 68.6 µM; in assay [3] it was 39.3 µM; in [10] it was 38 µM; in assay [5], 64.8 µM; in [6] it was 39 µM. Besides, the total growth inhibition concentration (TGI) in [8] and in assay [9] was 35.9 µM each time.

Turning to `CSC1NC(c2ccc(Cl)cc2)=C(C#N)C(=O)N1C1OCC(OC(C)=O)C(OC(C)=O)C1OC(C)=O` (configuration not stated), the TGI in [2], in assay [3], in assay [10], in assay [4], in assay [5] and in assay [6] was above 100 µM throughout. The TGI in assay [7], in assay [8] and in assay [9] was above 100 µM each time.

With `NC(Cc1ccc(S(=O)(=O)O)cc1)C(=O)NC(Cc1ccc(S(=O)(=O)O)cc1)C(=O)O` (configuration not stated), the TGI in assay [1], in [2], in assay [3], in [10], in assay [4] and in assay [6] was above 100 µM throughout. The TGI in assay [7], in assay [8] and in assay [9] was above 100 µM in each case.

Regarding `CCOC(=O)Cc1nc2c(N)ncnc2n1C1OC(COC(C)=O)C(OC(C)=O)C1OC(C)=O` (configuration not stated), the TGI in assay [1], in assay [2], in [3], in assay [4], in assay [5] and in assay [6] was above 100 µM throughout. Moreover, the TGI in assay [7], in assay [8] and in [9] was above 100 µM each time.

On to `O=C1Nc2ccccc2Nc2ccncc21`, for which the TGI in assay [1] was above 100 µM; in assay [3], above 100 µM; in assay [10], above 100 µM; in [4] it was above 100 µM; in [5], above 100 µM; in assay [6] it was above 31.6 µM. Further, the concentration for total growth inhibition (TGI) in assay [8] and in assay [9] was above 100 µM each time.

With `CC(=O)Oc1ccc(/C=C/C(=O)O[C@@H](C(=O)O)[C@@H](OC(=O)/C=C/c2ccc(OC(C)=O)c(OC(C)=O)c2)C(=O)O)cc1OC(C)=O`, the TGI in [1], in assay [2], in assay [10], in assay [4], in [5] and in [6] was above 100 µM each time. In addition, the TGI in assay [7], in assay [8] and in assay [9] was above 100 µM throughout.

For the compound `CC(C)(C)N(Cc1ccc2c(c1)OCO2)C(=O)/C=C\Sc1ccccc1`, the TGI in assay [1], in [3], in assay [10], in assay [5], in assay [6] and in assay [7] was above 100 µM throughout. In addition, the TGI in assay [8] and in assay [9] was above 100 µM throughout.

Take `COc1ccc2c(OCc3nnc4ccc(-c5ccccc5)nn34)ccnc2c1`: the GI50 in [1], in assay [2], in [3], in assay [4], in assay [5] and in [6] was above 100 µM throughout. Also, the GI50 in [7], in assay [8] and in [9] was above 100 µM throughout. Further, the TGI in [1], in assay [2], in assay [3], in [4], in assay [5] and in assay [6] was above 100 µM each time. In addition, the TGI in [7], in assay [8] and in assay [9] was above 100 µM throughout.

Turning to `C[C@H]1S[C@H](c2c(Cl)cccc2Cl)N2Cc3ccccc3N=C12`, the TGI is 40.3 µM in assay [1]; 42.3 µM in [2]; above 100 µM in [10]; 32.5 µM in assay [4]; 38.3 µM in assay [5]; above 100 µM in [6]. The figures for the concentration for total growth inhibition (TGI) in assay [7], in assay [8] and in assay [9] were 41.9 µM, 45.6 µM and 26.1 µM, respectively.
